The text below walks through data of patent US20230026163A1, “ANTICANCER COMPOUND AND MEDICAL USE THEREOF” (ASCENTAWITS PHARMACEUTICALS, LTD., priority 2019, published 2023).

Structures are written as SMILES. Read-outs that look alike come from different tables or passages of the source.

In one series the test system is H460. The series is described as follows: Cytotoxicity on cell lines of different species: H460. The note with it: NCI-H460; H460, Human; exposure time: 72 h. In kind it is cell-based.
In series [1] the test system is H460 cell line. The series is described as follows: Hypoxia-dependent cytotoxicity experiment (2 hours exposure, air or N2, CTG). It counts as cell-based. The note with it: Homo sapiens, then 3 days. Here is the method: To determine the effect of the compounds of the present disclosure on cancer cell proliferation, these compounds were tested for cancer cell anti-proliferative activity in a porous CTG-based assay. Cell growth was compared in the present (treatment groups) and the absence of the test compound. 10,000 cells/well/495 μL of medium was used to test the following cell line, a human tumor cell line of H460 non-small cell lung cancer. The cells were seeded on glass-inserts located in each well of 24-well plates with a density and medium as specified above. 24 hours later, the plates were divided into 2 groups, hypoxia (using N2) group and air group. TH-302 at the concentrations from 100, 10, 0.1 to 0.01 μM, and the test compounds at the concentrations from 10, 1, 0.1, 0.01, 0.001 to 0.0001 were added to each well (500 μL volume) of the treatment groups. The final DMSO concentration in each well was lower than or equal to 1%. The cells in the hypoxia group were incubated for 2 hours in an ELECTROTEK hypoxia workstation. The cells in the air group were incubated for 2 hours in a standard culture incubator. 2 hours later, the test compounds were removed from each well. The cells were washed with 500 μL of medium and incubated in 500 μL of fresh medium for 3 days. 3 days later, 200 μL of medium per well was discarded. 60 μL of CTG was added to the wells, and the plates were placed at room temperature for 15 minutes in the dark. 100 μL of medium from each well of the 24-well plates was transferred to 96-well plates. The chemiluminescence signal values were read with an M5 full-band multi-mode-function microplate reader, and integration=750 ms. The compounds of control 1 and control 2 were used as controls.

For series [2], the target named is T1, P-glycoprotein (Homo sapiens, UniProt P08183). Further details: expressed in transfected cells; host or cells: MDCKII-MDR1 (MDCKII canine kidney cells). The note with it: cited from earlier work.
T1 sequence (P08183 whole entry): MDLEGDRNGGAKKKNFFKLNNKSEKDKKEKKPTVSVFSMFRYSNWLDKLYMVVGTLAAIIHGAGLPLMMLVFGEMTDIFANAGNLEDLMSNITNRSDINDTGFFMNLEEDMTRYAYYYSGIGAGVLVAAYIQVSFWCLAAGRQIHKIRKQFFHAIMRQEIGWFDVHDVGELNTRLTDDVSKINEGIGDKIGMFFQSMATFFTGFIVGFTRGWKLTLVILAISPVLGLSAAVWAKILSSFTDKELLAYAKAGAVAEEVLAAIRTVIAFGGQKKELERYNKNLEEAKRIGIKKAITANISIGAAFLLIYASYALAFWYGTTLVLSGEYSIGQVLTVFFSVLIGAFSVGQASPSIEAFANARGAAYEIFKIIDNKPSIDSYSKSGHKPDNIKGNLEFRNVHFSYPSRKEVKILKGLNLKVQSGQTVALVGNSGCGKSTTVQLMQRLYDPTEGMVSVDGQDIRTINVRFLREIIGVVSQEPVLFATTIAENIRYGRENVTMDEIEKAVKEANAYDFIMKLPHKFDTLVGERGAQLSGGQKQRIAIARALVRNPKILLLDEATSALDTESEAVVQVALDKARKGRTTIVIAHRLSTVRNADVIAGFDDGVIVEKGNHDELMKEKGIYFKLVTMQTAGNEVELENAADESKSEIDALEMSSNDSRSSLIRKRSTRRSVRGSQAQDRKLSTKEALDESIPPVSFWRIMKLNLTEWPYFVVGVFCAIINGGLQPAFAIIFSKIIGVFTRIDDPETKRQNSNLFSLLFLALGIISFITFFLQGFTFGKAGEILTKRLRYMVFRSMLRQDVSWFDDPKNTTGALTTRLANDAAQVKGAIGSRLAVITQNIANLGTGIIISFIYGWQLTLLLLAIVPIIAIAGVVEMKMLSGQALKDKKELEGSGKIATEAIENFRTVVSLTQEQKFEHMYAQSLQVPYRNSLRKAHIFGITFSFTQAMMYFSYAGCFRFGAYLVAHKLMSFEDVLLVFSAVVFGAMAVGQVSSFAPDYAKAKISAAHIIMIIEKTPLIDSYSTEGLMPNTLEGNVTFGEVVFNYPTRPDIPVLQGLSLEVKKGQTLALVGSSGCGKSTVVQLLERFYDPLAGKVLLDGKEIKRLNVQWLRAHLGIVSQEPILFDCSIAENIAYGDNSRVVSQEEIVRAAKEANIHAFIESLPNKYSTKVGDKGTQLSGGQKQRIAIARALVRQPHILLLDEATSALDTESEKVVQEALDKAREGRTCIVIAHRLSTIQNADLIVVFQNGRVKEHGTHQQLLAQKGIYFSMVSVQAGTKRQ
In series [3] the test system is H460 cell line. The series is described as follows: Cytotoxicity comparison of TH-302 and compound 01 on H460 at different test times. In kind it is cell-based, human. The note with it: Homo sapiens, NCI-H460, 2 h, H460, exposure for 2 hours, air. An excerpt: The cytotoxicity test results of TH-302 and compound 01 on H460 cell line under different test times in the same laboratory, the same operator, and the same experimental conditions.

For a further series, the system named is AA8. Description: Cytotoxicity on cell lines of different species: AA8. In kind it is cell-based.
Series [4] deals with H460 non-small cell lung cancer. Particulars: cited from earlier work.
The nature of a further series: Plasma stability, dog. In kind it is in vitro ADME. Particulars: Dog plasma, 5 μM, 37° C., after 30 minutes. On the procedure: (§1) Frozen plasma was melted immediately in a water bath at 37° C. […] The supernatants were collected into new tubes, respectively. pH values of the plasma were checked and recorded. Note: a, no more 2 times melted plasma was used since the sample was received; b, the plasma in pH 7 to pH 8 was used.
(§2) 1 mM of working solution of the test compounds and the control compound, propantheline, were prepared in DMSO. 1 mM of working solution of the control compound in […] was prepared in acetonitrile. 4 μL of the working solutions were added to 796 μL of pre-incubated plasma respectively to achieve a final concentration of 5 μM. The final concentration of solvent was 0.5%.
(§3) […] The test was performed in duplicate. […] 50 μL of the labeled plasma was added to new tubes containing 300 μL of the quench solution of room temperature, i.e., the sample with a preparation time of 0. The samples were vortexed to mix for 5 minutes. […] 100 μL of the supernatant was transferred to new plates.

The nature of a further series: Plasma stability, rat. It counts as in vitro ADME. The note with it: Rat plasma, 5 μM, 37° C., after 30 minutes. Here is the method:
as §1, §2, §3

The target of series [5] is T1, P-glycoprotein. The series is described as follows: in vitro. The note with it: MDCK-MDR1; for Papp A→B at 2 h / Papp B→A at 2 h: dog. Here is the method: MDCKII-MDR1 cells were incubated in cell culture flasks. The incubator was set at 37° C., 5% CO2, and a guaranteed relative humidity of 95%. When the cells reached 70 to 90% confluence, the cells may be seeded to transwells.
50 μL of the cell suspensions were added to the apical chambers of each well of the 96-well transwells at a final seeding density of 5.45×10^5 cells/cm^2.
MDCKII-MDR1 cells may be fully confluent and differentiated after 4 to 8 days of incubation. At this time, the cells may be applied to penetration test. The monolayer membrane resistance was measured with a resistance meter (Millipore), and the resistance per well was recorded. After the test, the transwells were returned to the incubator.
The transwells with MDCKII-MDR1 cells were taken from the incubator. The cell monolayers were rinsed twice with buffer and incubated at 37° C. for 30 minutes.
The rate of the compounds from an apical end to a basolateral end was determined. 75 μL of the buffer containing the test sample was added to each well of the apical chambers (apical end), and 235 μL of the buffer was added to each well of the basolateral chambers (basolateral end).
The rate of the compounds transporting from the basolateral end to the apical end was determined. 75 μL of the buffer was added to the apical chambers (apical end), and 235 μL of the buffer containing the test sample was added to the basolateral chamber (basolateral end).
After the apical chambers and the basolateral chambers were combined respectively, the transwells were incubated at 37° C. for 2 hours.
After incubation, 50 μL of the sample from each well of the apical chambers and the basolateral chambers of the transwells was transferred to new sample tubes respectively. 200 μL of acetonitrile (100 nM of Alprazolam, 200 nM of Labetalol, 200 nM of caffeine, and 2 μM of Ketoprofen) as an internal standard was added to the sample tubes, vortexed for 10 minutes, and centrifuged at 3220 g for 30 minutes. 100 μL of the supernatant was taken and diluted with an equal volume of water for LC-MS/MS analysis. Each sample was incubated in triplicate.
Peak-areas were calculated from ion chromatography results. The apparent permeability coefficient (Papp, unit: cm/s×10-6) of the compounds was calculated by the following formula.
In the formula, VA was the volume of the solution at the acceptor end (Ap→B1 was 0.235 mL, and B1→Ap was 0.075 mL), Area was the membrane area (0.143 cm^2) of 96-well transwell, time was the incubation time (unit: s), [drug]acceptor referred to the drug concentration of the acceptor end after incubation, and [drug]initial,donor referred to the initial concentration of the donor end before incubation.
Efflux ratio was calculated with the following formula.
In the formula, Papp(B_A) was the apparent permeability coefficient from the basolateral end to the apical end, and Papp(A-B) was the apparent permeability coefficient from the apical end to the basolateral end.
The recovery rate was calculated with the following formula.
In the formula, VA was the solution volume of the acceptor end (unit: mL), VD was the solution volume of the donor end (unit: mL), [drug]acceptor referred to the drug concentration of the acceptor end after incubation, and [drug]initial,donor referred to the initial concentration of the donor end before incubation.

The nature of the next series: Plasma stability, human. It counts as in vitro ADME. Particulars: 5 μM, 37° C., after 30 minutes. On the procedure: as §1, §2
Aliquots of 50 μL of labelled plasma were transferred to new tubes and incubated in a water bath at 37° C. at approximately 60 rpm for 2 hours. The test was performed in duplicate. […] 50 μL of the labeled plasma was added to new tubes containing 300 μL of the quench solution of room temperature, i.e., the sample with a preparation time of 0. The samples were vortexed to mix for 5 minutes. […] 100 μL of the supernatant was transferred to new plates.

Another series is described as follows: Plasma stability, mouse. It counts as in vitro ADME. The note with it: Mouse plasma, 5 μM, 37° C., after 30 minutes. Here is the method:
as §1, §2, §3

A short description of another series: Plasma stability, monkey. It counts as in vitro ADME. The note with it: 5 μM, 37° C., after 30 minutes. Here is the method:
as §1, §2, §3

Series [6] concerns H460 cell line. The note with it: test results in WO2016210175A1 and CN108024974A, cited from earlier work.
[7] abbreviates: test results in WO2016210175A1 and CN108024974A.

For orientation: IC50 means the midpoint of a concentration-inhibition curve. Consider `Cn1c(COP(=O)(NCCBr)NCCBr)cnc1[N+](=O)[O-]` [Control 1, Evofosfamide, reference compound], for which the IC50 was 20 µM with H460; 7.98 µM in the series on H460 cell line [1] (NCI-H460, H460, air, read-out: Normoxia: IC50); 0.0479 µM in the series with H460 cell line [1] (NCI-H460, H460, hypoxia (N2), read-out: N2: IC50); 23 µM in the series with H460 cell line [3] (Time 1); 8 µM in the series on H460 cell line [3] (Time 2); 3.3 µM in the series on H460 cell line [3] (Time 3). Further, the IC50 in the series with AA8 (CHO-AA8, AA8, Rat, exposure time: 72 h) is 830 µM; in series [4] (value from published literature (Meng et al., Mol Cancer Ther 2012)), 800 nM. Also, on P-glycoprotein [2], the “P-gp substrate (known / earlier data and literature)” value is reported as “P-gp substrate”. For the same molecule, the “Multiple: Rat/Human” value with AA8 (IC50 AA8 / IC50 H460) stood at 41.5.

In the case of `CC[C@H](C)C(=O)O[C@H]1C[C@@H](C)C=C2C=C[C@H](C)[C@H](CC[C@@H]3C[C@@H](O)CC(=O)O3)[C@H]21` [Lovastatin, reference compound], the Remaining percentage in “Plasma stability, dog” is recorded as 37.6%; in the series “Plasma stability, rat” it was 0.21%.

As usually defined, the Papp A→B is how fast a substance crosses the layer from the apical side. Usually Papp B→A stands for the apparent permeability from the basolateral to the apical side of a cell layer. In the case of `COc1cc2nc(N3CCN(C(=O)c4ccco4)CC3)nc(N)c2cc1OC` [Prazosin, reference compound], at P-glycoprotein [5], the “Papp (A-B)” value is 28.47 10^−6, cm/s; the “Papp (B-A)” value is reported as 14.14 10^−6, cm/s; the Papp A→B at 2 h is 14 ×10⁻⁶ cm/s; the Papp B→A at 2 h was 28.2 ×10⁻⁶ cm/s. Besides, the “P-gp substrate (known / earlier data and literature)” value at P-glycoprotein [2] is “known P-gp substrates”.

Regarding `Cc1ccc(NC(=O)c2ccc(CN3CCN(C)CC3)cc2)cc1Nc1nccc(-c2cccnc2)n1` [Imatinib, reference compound], at P-glycoprotein [5], the “Papp (A-B)” value is 21.94 10^−6, cm/s; the “Papp (B-A)” value is 18.69 10^−6, cm/s; the Papp A→B at 2 h is 2.24 ×10⁻⁶ cm/s; the Papp B→A at 2 h turned out to be 24.1 ×10⁻⁶ cm/s. The “P-gp substrate (known / earlier data and literature)” value on P-glycoprotein [2] was “known P-gp substrates”.

On to `CC(C)[N+](C)(CCOC(=O)C1c2ccccc2Oc2ccccc21)C(C)C` [Propantheline, reference compound], for which the Remaining percentage in the series “Plasma stability, human” stood at 0.07%; in “Plasma stability, mouse”, 5.33%; in the series “Plasma stability, monkey” it was 48.11%.

As for `C[C@H](OP(=O)(N1CC1)N1CC1)c1ccc([N+](=O)[O-])cc1` [TH2566], the IC50 in series [4] (setting [7]) is 100 nM; in the series on H460 cell line [6] (read-out: N2: IC50), 23 µM; in the series on H460 cell line [6] (read-out: Normoxia: IC50), 0.1 µM.

For the molecule `C[C@@H](OP(=O)(N1CC1)N1CC1)c1ccc([N+](=O)[O-])cc1` [TH2565], the half-maximal inhibitory concentration (IC50) in series [4] (setting [7]) was 100 nM; in the series on H460 cell line [6] (read-out: N2: IC50), 18 µM; in the series with H460 cell line [6] (read-out: Normoxia: IC50), 0.1 µM.
